Target: Mitogen-activated protein kinase kinase kinase 9 (Homo sapiens, UniProt P80192)
Test: Evaluation of Inhibitory Activity of Enzyme Units

Mitogen-activated protein kinase kinase kinase 9, sequence (P80192 whole entry): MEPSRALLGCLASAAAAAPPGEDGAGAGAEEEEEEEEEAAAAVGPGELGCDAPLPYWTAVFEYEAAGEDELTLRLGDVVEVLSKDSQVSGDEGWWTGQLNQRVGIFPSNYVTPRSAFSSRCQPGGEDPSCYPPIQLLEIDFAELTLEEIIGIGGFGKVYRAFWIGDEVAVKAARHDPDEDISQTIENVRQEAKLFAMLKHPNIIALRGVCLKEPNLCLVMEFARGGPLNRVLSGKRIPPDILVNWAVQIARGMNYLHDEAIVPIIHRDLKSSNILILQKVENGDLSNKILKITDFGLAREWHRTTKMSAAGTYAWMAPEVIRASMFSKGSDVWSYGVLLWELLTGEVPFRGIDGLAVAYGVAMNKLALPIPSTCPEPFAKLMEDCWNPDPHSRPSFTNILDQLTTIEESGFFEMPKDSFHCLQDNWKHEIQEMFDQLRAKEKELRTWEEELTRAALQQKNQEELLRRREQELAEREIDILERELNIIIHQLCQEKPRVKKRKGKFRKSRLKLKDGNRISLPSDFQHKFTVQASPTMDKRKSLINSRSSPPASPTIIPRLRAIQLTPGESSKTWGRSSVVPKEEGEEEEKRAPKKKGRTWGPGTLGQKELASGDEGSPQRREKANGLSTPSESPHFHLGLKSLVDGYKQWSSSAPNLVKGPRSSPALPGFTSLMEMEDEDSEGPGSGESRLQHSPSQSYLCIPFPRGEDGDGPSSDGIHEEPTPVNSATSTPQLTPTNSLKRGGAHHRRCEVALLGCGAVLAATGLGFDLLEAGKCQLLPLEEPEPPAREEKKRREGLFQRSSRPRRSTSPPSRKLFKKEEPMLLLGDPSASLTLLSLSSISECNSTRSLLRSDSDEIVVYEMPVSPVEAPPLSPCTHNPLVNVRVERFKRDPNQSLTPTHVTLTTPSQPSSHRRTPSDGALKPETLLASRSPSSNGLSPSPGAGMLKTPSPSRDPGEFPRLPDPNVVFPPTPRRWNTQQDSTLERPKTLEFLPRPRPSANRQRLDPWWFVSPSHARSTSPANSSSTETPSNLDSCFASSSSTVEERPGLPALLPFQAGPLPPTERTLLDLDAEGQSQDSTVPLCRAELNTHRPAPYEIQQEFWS

In the case of `CCS(=O)(=O)N1CC[C@H](Nc2c(Br)cnc3nc(-c4cc(C)n(-c5ccc(OCCN6CCOCC6)cc5)c4C)[nH]c23)C1` [US12545673, Example 4], the IC50 is reported as 56 nM.
